Laboratory results: patent US9914730B2, “Azaquinazoline inhibitors of Atypical protein Kinase C” (Ignyta, Inc., priority 2012, dated 2018)
pIC50: −log10 of the molar value.

molecular target: T1, full-length human PKCι (Homo sapiens, UniProt P41743); assay: PKCι IC50 IMAP assay, full-length PKCι at 150 μM ATP; format: biochemical; conditions: read-out: IC50 in IMAP assay against full length PKCi at 150 μM ATP
T1 construct: Recombinant, full-length human PKCι expressed in Sf21 insect cells is also commercially available; purchased; host or cells: Sf21 insect cells
T1 sequence (P41743 1-596): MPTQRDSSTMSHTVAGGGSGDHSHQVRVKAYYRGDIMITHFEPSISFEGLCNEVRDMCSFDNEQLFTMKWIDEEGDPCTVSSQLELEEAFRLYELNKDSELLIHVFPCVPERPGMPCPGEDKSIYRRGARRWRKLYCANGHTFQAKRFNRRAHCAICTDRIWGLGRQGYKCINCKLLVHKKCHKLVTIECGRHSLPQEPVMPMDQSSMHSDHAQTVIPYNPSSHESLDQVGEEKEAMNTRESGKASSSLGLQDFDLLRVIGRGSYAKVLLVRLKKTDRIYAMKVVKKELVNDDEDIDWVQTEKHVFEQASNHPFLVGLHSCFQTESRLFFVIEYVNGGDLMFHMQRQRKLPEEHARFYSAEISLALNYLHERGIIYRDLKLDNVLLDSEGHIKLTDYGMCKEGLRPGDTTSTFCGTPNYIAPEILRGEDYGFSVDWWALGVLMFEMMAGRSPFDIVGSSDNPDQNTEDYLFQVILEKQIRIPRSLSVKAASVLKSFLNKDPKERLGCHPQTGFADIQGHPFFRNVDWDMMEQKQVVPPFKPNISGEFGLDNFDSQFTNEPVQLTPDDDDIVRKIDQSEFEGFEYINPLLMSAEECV
Summary of the method: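 Phosphorylation of a 5FAM-tagged PKCε pseudopeptide-derived substrate (100 nM) by full-length recombinant human PKCι was monitored by IMAP fluorescence polarisation. ATP was held at 150 μM, five times its apparent KM, with 60 min room-temperature incubation.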

pIC50	Compound
5.00 to 6.00	Cc1ccnc(Nc2cc(-c3nc(N[C@@H]4CCNC4)c4ccncc4n3)ccn2)c1 [Example 338, {2-[2-(4-Methyl-pyridin-2-ylamino)-pyridin-4-yl]-pyrido[3,4-d]pyrimidin-4-yl}-(R)-pyrrolidin-3-yl-amine]
> 7.00	Clc1ccnc(Nc2cc(-c3nc(N[C@@H]4CCNC4)c4ccncc4n3)ccn2)c1 [Example 339, {2-[2-(4-Chloro-pyridin-2-ylamino)-pyridin-4-yl]-pyrido[3,4-d]pyrimidin-4-yl}-(R)-pyrrolidin-3-yl-amine]
> 7.00	N#Cc1ccc(Nc2cc(-c3nc(N[C@@H]4CCNC4)c4ccncc4n3)ccn2)nc1 [Example 341, 6-{4-[4-((R)-Pyrrolidin-3-ylamino)-pyrido[3,4-d]pyrimidin-2-yl]-pyridin-2-ylamino}-nicotinonitrile]
6.00 to 7.00	N#Cc1ccnc(Nc2cc(-c3nc(N4CCNCC4)c4ccncc4n3)ccn2)c1 [Example 342, 2-[4-(4-piperazin-1-yl-pyrido[3,4-d]pyrimidin-2-yl)-pyridin-2-ylamino]-isonicotinonitrile]
6.00 to 7.00	c1cc2c(N[C@@H]3CCNC3)nc(-c3ccnc(Nc4cc(N5CCOCC5)ccn4)c3)nc2cn1 [Example 343, {2-[2-(4-Morpholin-4-yl-pyridin-2-ylamino)-pyridin-4-yl]-pyrido[3,4-d]pyrimidin-4-yl}-(R)-pyrrolidin-3-yl-amine]
> 7.00	COc1cncc2nc(-c3ccnc(Nc4ccc(C#N)cn4)c3)nc(N[C@@H]3CCNC3)c12 [Example 344, 6-{4-[5-Methoxy-4-((R)-pyrrolidin-3-ylamino)-pyrido[3,4-d]pyrimidin-2-yl]-pyridin-2-ylamino}-nicotinonitrile]
> 7.00	Cc1ccc(Nc2cc(-c3nc(N[C@@H]4CCNC4)c4ccncc4n3)ccn2)nc1 [Example 345, {2-[2-(5-Methyl-pyridin-2-ylamino)-pyridin-4-yl]-pyrido[3,4-d]pyrimidin-4-yl}-(R)-pyrrolidin-3-yl-amine]
> 7.00	Clc1ccc(Nc2cc(-c3nc(N[C@@H]4CCNC4)c4ccncc4n3)ccn2)nc1 [Example 346, {2-[2-(5-Chloro-pyridin-2-ylamino)-pyridin-4-yl]-pyrido[3,4-d]pyrimidin-4-yl}-(R)-pyrrolidin-3-yl-amine]
> 7.00	c1cc(Nc2cc(-c3nc(N[C@@H]4CCNC4)c4ccncc4n3)ccn2)ncn1 [Example 347, {2-[2-(Pyrimidin-4-ylamino)-pyridin-4-yl]-pyrido[3,4-d]pyrimidin-4-yl}-(R)-pyrrolidin-3-yl-amine]
> 7.00	N#Cc1cccc(CC(=O)Nc2cc(-c3nc(N[C@@H]4CCNC4)c4ccncc4n3)ccn2)c1 [Example 348, 2-(3-Cyano-phenyl)-N-{4-[4-((R)-pyrrolidin-3-ylamino)-pyrido[3,4-d]pyrimidin-2-yl]-pyridin-2-yl}-acetamide]
> 7.00	N#Cc1ccc(CC(=O)Nc2cc(-c3nc(N[C@@H]4CCNC4)c4ccncc4n3)ccn2)cc1 [Example 349, 2-(4-Cyano-phenyl)-N-{4-[4-((R)-pyrrolidin-3-ylamino)-pyrido[3,4-d]pyrimidin-2-yl]-pyridin-2-yl}-acetamide]
> 7.00	FC(F)(F)c1ccnc(Nc2cc(-c3nc(N[C@@H]4CCNC4)c4ccncc4n3)ccn2)c1 [Example 350, (R)-Pyrrolidin-3-yl-{2-[2-(4-trifluoromethyl-pyridin-2-ylamino)-pyridin-4-yl]-pyrido[3,4-d]pyrimidin-4-yl}-amine]
> 7.00	FC(F)(F)c1ccc(Nc2cc(-c3nc(N[C@@H]4CCNC4)c4ccncc4n3)ccn2)nc1 [Example 351, (R)-Pyrrolidin-3-yl-{2-[2-(5-trifluoromethyl-pyridin-2-ylamino)-pyridin-4-yl]-pyrido[3,4-d]pyrimidin-4-yl}-amine]
> 7.00	COc1cncc2nc(-c3ccnc(Nc4cc(C#N)ccn4)c3)nc(N3CCNCC3)c12 [Example 352, 2-[4-(5-Methoxy-4-piperazin-1-yl-pyrido[3,4-d]pyrimidin-2-yl)-pyridin-2-ylamino]-isonicotinonitrile]
> 7.00	COc1cncc2nc(-c3ccnc(Nc4ccc(C#N)cn4)c3)nc(N3CCNCC3)c12 [Example 353, 6-[4-(5-Methoxy-4-piperazin-1-yl-pyrido[3,4-d]pyrimidin-2-yl)-pyridin-2-ylamino]-nicotinonitrile]
5.00 to 6.00	COc1cncc2nc(-c3ccnc(Nc4ccccc4)c3)nc(N3CCC(N4CCOCC4)CC3)c12 [Example 354, {4-[5-Methoxy-4-(4-morpholin-4-yl-piperidin-1-yl)-pyrido[3,4-d]pyrimidin-2-yl]-pyridin-2-yl}-phenyl-amine]
> 7.00	COc1cncc2nc(-c3ccnc(NC(=O)Cc4ccc(C#N)cc4)c3)nc(N3CCNCC3)c12 [Example 355, 2-(4-Cyano-phenyl)-N-[4-(5-methoxy-4-piperazin-1-yl-pyrido[3,4-d]pyrimidin-2-yl)-pyridin-2-yl]-acetamide]
> 7.00	COc1cncc2nc(-c3ccnc(NC(=O)Cc4cccc(C#N)c4)c3)nc(N3CCNCC3)c12 [Example 356, 2-(3-Cyano-phenyl)-N-[4-(5-methoxy-4-piperazin-1-yl-pyrido[3,4-d]pyrimidin-2-yl)-pyridin-2-yl]-acetamide]
> 7.00	c1cc2c(N[C@@H]3CCNC3)nc(-c3ccnc(Nc4ccc(N5CCOCC5)cn4)c3)nc2cn1 [Example 357, {2-[2-(5-Morpholin-4-yl-pyridin-2-ylamino)-pyridin-4-yl]-pyrido[3,4-d]pyrimidin-4-yl}-(R)-pyrrolidin-3-yl-amine]
6.00 to 7.00	COc1cc(N2CCOCC2)ccc1Nc1cc(-c2nc(N[C@@H]3CCNC3)c3ccncc3n2)ccn1 [Example 358, {2-[2-(2-Methoxy-4-morpholin-4-yl-phenylamino)-pyridin-4-yl]-pyrido[3,4-d]pyrimidin-4-yl}-(R)-pyrrolidin-3-yl-amine]
6.00 to 7.00	COc1cc(N2CCOCC2)ccc1Nc1cc(-c2nc(N3CCNCC3)c3c(OC)cncc3n2)ccn1 [Example 359, (2-Methoxy-4-morpholin-4-yl-phenyl)-[4-(5-methoxy-4-piperazin-1-yl-pyrido[3,4-d]pyrimidin-2-yl)-pyridin-2-yl]-amine]
6.00 to 7.00	COc1cc(N2CCOCC2)ccc1Nc1cc(-c2nc(N[C@@H]3CCNC3)c3c(OC)cncc3n2)ccn1 [Example 360, {5-Methoxy-2-[2-(2-methoxy-4-morpholin-4-yl-phenylamino)-pyridin-4-yl]-pyrido[3,4-d]pyrimidin-4-yl}-(R)-pyrrolidin-3-yl-amine]
> 7.00	COc1cncc2nc(-c3ccnc(Nc4ccc(C5CCOCC5)cc4)c3)nc(N[C@@H]3CCNC3)c12 [Example 361, (5-Methoxy-2-{2-[4-(tetrahydro-pyran-4-yl)-phenylamino]-pyridin-4-yl}-pyrido[3,4-d]pyrimidin-4-yl)-(R)-pyrrolidin-3-yl-amine]
> 7.00	COc1cncc2nc(-c3ccnc(Nc4ccc(C5CCOCC5)cc4)c3)nc(N3CCNCC3)c12 [Example 362, [4-(5-Methoxy-4-piperazin-1-yl-pyrido[3,4-d]pyrimidin-2-yl)-pyridin-2-yl]-[4-(tetrahydro-pyran-4-yl)-phenyl]-amine]
> 7.00	COc1cncc2nc(-c3ccnc(Nc4cc(C)ccn4)c3)nc(N3CCNCC3)c12 [Example 363, [4-(5-Methoxy-4-piperazin-1-yl-pyrido[3,4-d]pyrimidin-2-yl)-pyridin-2-yl]-(4-methyl-pyridin-2-yl)-amine]
